Reference: US20190359645A1, “2'3'-CYCLIC DINUCLEOTIDES COMPRISING CARBOCYCLIC NUCLEOTIDE” (Institute of Organic Chemistry and Biochemistry ASCR, V.V.I., priority 2018, published 2019)

biological target: T1, AQ STING (G230A-R293Q) (Homo sapiens, UniProt Q86WV6, G230A/H232R/R293Q); experiment: Differential scanning fluorimetry (DSF) with AQ STING; assay type: binding; conditions: thermal shift, truncated human AQ STING 0.1 mg/ml, 150 μM CDN
T1 construct: truncated human WT STING or AQ STING (amino acid residues 140-343); 8xHis (N, cleaved yes); SUMO (N, cleaved yes); made in house; host or cells: E. coli Rosetta-gami B (DE3)
T1 sequence (Q86WV6 140-343 G230A/H232R/R293Q): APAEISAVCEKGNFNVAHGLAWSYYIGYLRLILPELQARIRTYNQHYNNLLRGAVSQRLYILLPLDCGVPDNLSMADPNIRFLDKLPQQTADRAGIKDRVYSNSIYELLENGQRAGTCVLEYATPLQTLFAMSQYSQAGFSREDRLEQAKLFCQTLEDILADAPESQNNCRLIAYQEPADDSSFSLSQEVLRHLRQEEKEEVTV
Source text: Both WT and AQ human STING (G230A-R^293Q) cDNA were amplified by the use of PCR (Phusion® High-Fidelity DNA Polymerase, cat. # M0530S, NEB, Ipswich, USA) using oligonucleotides hSTING140-BamH-For ([…]) (SEQ ID NO:5) and hSTING379-Not-Rev3 ([…]) (SEQ ID NO:6) from pUNOI-hSTING-WT (cat. # punol-hstingwt, InvivoGen, San Diego, USA) and pUNO1-hSTING-HAQ plasmids (punol-hsting-haq, InvivoGen, San Diego, USA). Purified PCR products were cleaved with restriction enzymes BamHI (cat. # R^0136S, NEB, Ipswich, USA) and NotI (cat. # R^0189S, NEB, Ipswich, USA) and cloned into the pSUMO vector linearized with the identical enzymes. Plasmid pSUMO was created by introducing 8-His-SUMO sequence between NdeI and BamHI sites of pHis-parallel2 plasmid (Clontech, Moutain View, USA). pSUMO-STING WT or pSUMO-STING AQ plasmids thus encoded truncated human WT STING or AQ STING (amino acid residues 140-343) with N-terminal 8×His and SUMO tag.
The recombinant WT STING and AQ STING proteins were overexpressed in Rosetta-gami B (DE3) competent cells (cat. #71136-3, Merck Millipore, Billerica, USA). Bacterial pellets were re-suspended in ice-cold lysis buffer containing 50 mmol·l^−1 TrisCl (cat. # T1503, Sigma Aldrich, Czech Republic) pH 8.0, 300 mmol·l^−1 NaCl, 3 mmol·l^−1 (3-mercaptoethanol (cat. # M6250, Sigma Aldrich, Czech Republic), 10% glycerol (cat. #G5516, Sigma Aldrich, Czech Republic) and 20 mmol·l^−1 imidazole (cat. #15513, Sigma Aldrich, Czech Republic) using Dounce homogenizer. DNase I (cat. # D5025, Sigma Aldrich, Czech Republic) and RNase A (cat. # R^6513, Sigma Aldrich, Czech Republic) were added (final concentration 50 μg/ml) together with MgCl2 (final concentration 5 mmol·l^−1) to the homogenate and bacteria were lysed using French Press G-M™ High-Pressure Cell Press Homogenizer (1500 psi, 3 cycles). Lysate was spun 30,000 g for 20 minutes and supernatant was gently stirred with Ni-NTA resin (cat. #745400.25 Macherey-Nagel, Duren, Germany) for 30 minutes. The resin was poured into a chromatography column, washed with 50 ml buffer A (50 mmol·l^−1 TrisCl (pH 8.0), 800 mmol·l^−1 NaCl, 3 mmol·l^−1β-mercaptoethanol; 10% glycerol; 20 mmol·l^−1 imidazole) and 8-His-SUMO tagged STING proteins were eluted with 15 ml buffer A containing 300 mmol·l^−1 imidazole. The eluted proteins were cleaved with recombinant SUMO protease (80 pig/ml of protein solution, cat. #12588018, ThermoFisher, Waltham, USA). The proteins were further purified by size exclusion chromatography using HiLoad 16/60 Superdex 75 (cat. #28989333, GE Healthcare Bio-Sciences, Pittsburgh, USA) in 50 mmol·l^−1 Tris C1 buffer pH 7.4 containing 150 mmol·l^−1 NaCl, and 10% glycerol. Proteins were concentrated with Amicon® Ultra-15 10 K device (cat. # UFC901008, Merck Millipore, Billerica, USA) and flash frozen in liquid N2.
WT and AQ allelic forms of STING protein were diluted to the final concentration 0.1 mg/ml in 100 mmol·l^−1 TrisCl buffer pH 7.4 containing, 150 mmol·l^−1 NaCl, 1:500 SYPRO Orange (cat. # S6650, ThermoFisher, Waltham, USA) and 150 μM CDN or water. 20 μL solutions of the reaction mixtures were pipetted in triplicates into 96 well optical reaction plates and thermal denaturation of samples were performed on real time PCR cycler (LightCycler® 480 Instrument II—Roche, Basel, Switzerland). The first derivative of the thermal denaturation curves was performed to calculate denaturing temperatures of STING-CDN complexes and STING apoproteins. The thermal shift for each CDN was calculated by subtracting the average denaturing temperature of STING apoprotein from the average denaturing temperature of STING CDN complex.

Row | SMILES | DSF ΔTm AQ STING [°C]
1 | Nc1ncnc2c1ncn2[C@@H]1O[C@@H]2COP(=O)(O)OC3C(O)[C@@H](COP(=O)(O)OC2C1O)C[C@H]3n1cnc2c(=O)[nH]cnc21 (stereo partly drawn) [Compound 121, (6R,8R,15R,17R)-8-(6-amino-9H-purin-9-yl)-3,9,12,18-tetrahydroxy-17-(6-oxo-6,9-dihydro-1H-purin-9-yl)-2,4,7,11,13-pentaoxa-3λ^5,12λ^5-diphosphatricyclo[13.2.1.0^6,10]octadecane-3,12-dione] | 17.0

same assay, conditions: thermal shift, truncated human AQ STING 0.1 mg/ml, 150 μM CDN; read-out: DSF ΔTm AQ STING

Row | SMILES | ΔTm at 150 µM [°C]
2 | CSc1nc(N)nc2c1ncn2[C@@H]1O[C@@H]2COP(=O)(O)OC3C(O)[C@@H](COP(=O)(O)OC2C1O)C[C@H]3n1cnc2c(=O)[nH]c(N)nc21 (stereo partly drawn) [Compound 112, (6R,8R,15R,17R)-8-[2-amino-6-(methylsulfanyl)-9H-purin-9-yl]-17-(2-amino-6-oxo-6,9-dihydro-1H-purin-9-yl)-3,9,12,18-tetrahydroxy-2,4,7,11,13-pentaoxa-3λ^5,12λ^5-diphosphatricyclo[13.2.1.0^6,10]octadecane-3,12-dione] | 4.7
3 | Cc1cn([C@@H]2O[C@@H]3COP(=O)(O)OC4C(O)[C@@H](COP(=O)(O)OC3C2O)C[C@H]4n2cnc3c(=O)[nH]c(N)nc32)c2ncnc(N)c12 (stereo partly drawn) [Compound 113, (6R,8R,15R,17R)-8-{4-amino-5-methyl-7H-pyrrolo[2,3-d]pyrimidin-7-yl}-17-(2-amino-6-oxo-6,9-dihydro-1H-purin-9-yl)-3,9,12,18-tetrahydroxy-2,4,7,11,13-pentaoxa-3λ^5,12λ^5-diphosphatricyclo[13.2.1.0^6,10]octadecane-3,12-dione] | 11.6
4 | C#Cc1cn([C@@H]2O[C@@H]3COP(=O)(O)OC4C(O)[C@@H](COP(=O)(O)OC3C2O)C[C@H]4n2cnc3c(=O)[nH]c(N)nc32)c2ncnc(N)c12 (stereo partly drawn) [Compound 114, (6R,8R,15R,17R)-8-{4-amino-5-ethynyl-7H-pyrrolo 2,3-dlpyrimidin-7-yl}-17-(2-amino-6-oxo-6,9-dihydro-1H-purin-9-yl)-3,9,12,18-tetrahydroxy-2,4,7,11,13-pentaoxa-3λ^5,12λ^5-diphosphatricyclo[13.2.1.0^6,10]octadecane-3,12-dione] | 10.3
5 | Nc1nc2c(ncn2[C@@H]2C[C@@H]3COP(=O)(O)OC4C(O)[C@H](n5cnc6c(Cl)ncnc65)O[C@@H]4COP(=O)(O)OC2C3O)c(=O)[nH]1 (stereo partly drawn) [Compound 115, (6R,8R,15R,17R)-17-(2-amino-6-oxo-6,9-dihydro-1H-purin-9-yl)-8-(6-chloro-9H-purin-9-yl)-3,9,12,18-tetrahydroxy-2,4,7,11,13-pentaoxa-3λ^5,12λ^5-diphosphatricyclo[13.2.1.0^6,10]octadecane-3,12-dione] | 14.2
6 | Nc1nc2c(ncn2[C@@H]2C[C@@H]3COP(=O)(O)OC4C(O)[C@H](n5nnc6c(N)ncnc65)O[C@@H]4COP(=O)(O)OC2C3O)c(=O)[nH]1 (stereo partly drawn) [Compound 116, (6R,8R,15R,17R)-8-{7-amino-3H-[1,2,3]triazolo[4,5-d]pyrimidin-3-yl}-17-(2-amino-6-oxo-6,9-dihydro-1H-purin-9-yl)-3,9,12,18-tetrahydroxy-2,4,7,11,13-pentaoxa-3λ^5,12λ^5-diphosphatricyclo[13.2.1.0^6,10]octadecane-3,12-dione] | 8.9
7 | Nc1nc(N)c2ncn([C@@H]3O[C@@H]4COP(=O)(O)OC5C(O)[C@@H](COP(=O)(O)OC4C3F)C[C@H]5n3cnc4c(=O)[nH]c(N)nc43)c2n1 (stereo partly drawn) [Compound 117, (6R,8R,15R,17R)-17-(2-amino-6-oxo-6,9-dihydro-1H-purin-9-yl)-8-(2,6-diamino-9H-purin-9-yl)-9-fluoro-3,12,18-trihydroxy-2,4,7,11,13-pentaoxa-3λ^5,12λ^5-diphosphatricyclo[13.2.1.0^6,10]octadecane-3,12-dione] | 17
8 | Nc1nc2c(ncn2[C@@H]2C[C@@H]3COP(=O)(S)OC4C(O)[C@H](n5cnc6c(N)ncnc65)O[C@@H]4COP(=O)(O)OC2C3O)c(=O)[nH]1 (stereo partly drawn) [Compound 118, (6R,8R,15R,17R)-17-(2-amino-6-oxo-6,9-dihydro-1H-purin-9-yl)-8-(6-amino-9H-purin-9-yl)-3,9,18-trihydroxy-12-sulfanyl-2,4,7,11,13-pentaoxa-3λ^5,12λ^5-diphosphatricyclo[13.2.1.0^6,10]octadecane-3,12-dione] | 16
9 | Nc1ncc2ncn([C@@H]3O[C@@H]4COP(=O)(O)OC5C(O)[C@@H](COP(=O)(O)OC4C3O)C[C@H]5n3cnc4c(=O)[nH]cnc43)c2n1 (stereo partly drawn) [Compound 119, (6R,8R,15R,17R)-8-(2-amino-9H-purin-9-yl)-3,9,12,18-tetrahydroxy-17-(6-oxo-6,9-dihydro-1H-purin-9-yl)-2,4,7,11,13-pentaoxa-3λ^5,12λ^5-diphosphatricyclo[13.2.1.0^6,10]octadecane-3,12-dione] | 13.7
10 | Nc1ncnc2c1ncn2[C@@H]1O[C@@H]2COP(=O)(O)OC3C(O)[C@@H](COP(=O)(O)OC2C1O)C[C@H]3n1cnc2c(=O)[nH]cnc21 (stereo partly drawn) [Compound 120, (6R,8R,15R,17R)-8-(6-amino-9H-purin-9-yl)-3,9,12,18-tetrahydroxy-17-(6-oxo-6,9-dihydro-1H-purin-9-yl)-2,4,7,11,13-pentaoxa-3λ^5,12λ^5-diphosphatricyclo[13.2.1.0^6,10]octadecane-3,12-dione] | 18.3
11 | Nc1ncnc2c1ccn2[C@@H]1O[C@@H]2COP(=O)(O)OC3C(O)[C@@H](COP(=O)(O)OC2C1O)C[C@H]3n1cnc2c(=O)[nH]cnc21 (stereo partly drawn) [Compound 122, (6R,8R,15R,17R)-8-{4-amino-7H-pyrrolo[2,3-d]pyrimidin-7-yl}-3,9,12,18-tetrahydroxy-17-(6-oxo-6,9-dihydro-1H-purin-9-yl)-2,4,7,11,13-pentaoxa-3λ^5,12λ^5-diphosphatricyclo[13.2.1.0^6,10]octadecane-3,12-dione] | 14.6
12 | Cc1cn([C@@H]2O[C@@H]3COP(=O)(O)OC4C(O)[C@@H](COP(=O)(O)OC3C2O)C[C@H]4n2cnc3c(=O)[nH]cnc32)c2ncnc(N)c12 (stereo partly drawn) [Compound 123, (6R,8R,15R,17R)-8-{4-amino-5-methyl-7H-pyrrolo[2,3-d]pyrimidin-7-yl}-3,9,12,18-tetrahydroxy-17-(6-oxo-6,9-dihydro-1H-purin-9-yl)-2,4,7,11,13-pentaoxa-3λ^5,12λ^5-diphosphatricyclo[13.2.1.0^6,10]octadecane-3,12-dione] | 12.1
13 | Nc1ncnc2c1c(I)cn2[C@@H]1O[C@@H]2COP(=O)(O)OC3C(O)[C@@H](COP(=O)(O)OC2C1O)C[C@H]3n1cnc2c(=O)[nH]cnc21 (stereo partly drawn) [Compound 124, (6R,8R,15R,17R)-8-{4-amino-5-iodo-7H-pyrrolo[2,3-d]pyrimidin-7-yl}-3,9,12,18-tetrahydroxy-17-(6-oxo-6,9-dihydro-1H-purin-9-yl)-2,4,7,11,13-pentaoxa-3λ^5,12λ^5-diphosphatricyclo[13.2.1.0^6,10]octadecane-3,12-dione] | 11.3
